From US7402548B2, “Benzoxazole compounds, process for producing the same and herbicides” (Kyoyu Agri Co., Ltd., priority 2000, dated 2008)

How the values were obtained:
Large crabgrass = assay: Foliar spread test for upland field; assay type: in vivo, Digitaria adscendens; set-up: key: 0 = normal development, 5 = all killed (6 ranks vs. untreated); settings: foliar spray, 500 ppm, 3 weeks, glass house 25° C.
Summary of the method: (§1)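 Scores on a 0–5 scale (0 normal development, 5 all killed), relative to untreated controls, were taken 3 weeks post-treatment in a 25 °C glass house. Treatment was a uniform foliar spray at 500 ppm (0.5% surfactant) onto roughly 2-week-old soil-grown plants.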

annual bluegrass = assay: Soil treatment test for upland field; assay type: in vivo, Poa annua; set-up: key: 0 = normal development, 5 = all killed; settings: 500 g/ha, 3 weeks, glass house 25° C.
Summary of the method: (§2)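 Pre-emergence: seeds sown in alluvial Ube soil, wettable powder diluted in water with 0.05% surfactant sprayed on soil surface at 500 g/ha. Plants held in glasshouse at 25° C average for 3 weeks. Damage scored 0 (normal) to 5 (all killed) versus untreated.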

wheat [1] = assay: Foliar spread test for upland field; assay type: in vivo; set-up: key: 0 = normal development, 5 = all killed (6 ranks vs. untreated); settings: foliar spray, 500 ppm, 3 weeks, glass house 25° C.
Summary of the method: as §1

corn [2] = assay: Foliar spread test for upland field; assay type: in vivo; set-up: key: 0 = normal development, 5 = all killed (6 ranks vs. untreated); settings: foliar spray, 500 ppm, 3 weeks, glass house 25° C.
Summary of the method: as §1

sugar beat [3] = assay: Foliar spread test for upland field; assay type: in vivo; set-up: key: 0 = normal development, 5 = all killed (6 ranks vs. untreated); settings: foliar spray, 500 ppm, 3 weeks, glass house 25° C.
Summary of the method: as §1

soybean = assay: Foliar spread test for upland field; assay type: in vivo; set-up: key: 0 = normal development, 5 = all killed (6 ranks vs. untreated); settings: foliar spray, 500 ppm, 3 weeks, glass house 25° C.
Summary of the method: as §1

solgum [4] = assay: Foliar spread test for upland field; assay type: in vivo; set-up: key: 0 = normal development, 5 = all killed (6 ranks vs. untreated); settings: foliar spray, 500 ppm, 3 weeks, glass house 25° C.
Summary of the method: as §1

cotton = assay: Foliar spread test for upland field; assay type: in vivo; set-up: key: 0 = normal development, 5 = all killed (6 ranks vs. untreated); settings: foliar spray, 500 ppm, 3 weeks, glass house 25° C.
Summary of the method: as §1

livid amaranth [5] = assay: Soil treatment test for upland field; assay type: in vivo, Amaranthus lividus; set-up: key: 0 = normal development, 5 = all killed; settings: 500 g/ha, 3 weeks, glass house 25° C.
Summary of the method: as §2

blackgrass = assay: Foliar spread test for upland field; assay type: in vivo, Alopecurus aegualis; set-up: key: 0 = normal development, 5 = all killed (6 ranks vs. untreated); settings: foliar spray, 500 ppm, 3 weeks, glass house 25° C.
Summary of the method: as §1

barnyard grass = assay: Soil treatment test for upland field; assay type: in vivo, Eschinochloa crusgalli; set-up: key: 0 = normal development, 5 = all killed; settings: 500 g/ha, 3 weeks, glass house 25° C.
Summary of the method: as §2

morning glory [6] = assay: Foliar spread test for upland field; assay type: in vivo, Ipomoea spps.; set-up: key: 0 = normal development, 5 = all killed (6 ranks vs. untreated); settings: foliar spray, 500 ppm, 3 weeks, glass house 25° C.
Summary of the method: as §1

green foxtail = assay: Soil treatment test for upland field; assay type: in vivo, Setaria viridis; set-up: key: 0 = normal development, 5 = all killed; settings: 500 g/ha, 3 weeks, glass house 25° C.
Summary of the method: as §2

arrowhead = assay: Herbicidal test for paddy field; assay type: in vivo, Sagittaria pygmaea; settings: 500 g/ha, dropwise addition to paddy water at 1.5 leaf stage of barnyard grass; glass house 25° C., 3 weeks; rank 0-5 vs non-treated district; also: key: 0: normal development; 1: Less damaged; 2: Slightly damaged; 3: Moderately damaged; 4: Severely damaged; 5: All killed
Summary of the method: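 Wettable-powder formulations in water with 0.05% surfactant were dripped onto flooded (3 cm) Ube alluvial-soil pots at 500 g/ha, applied at barnyard grass 1.5-leaf stage. Plants were kept in a glasshouse at 25° C. for 3 weeks. Damage was scored 0 (normal) to 5 (all killed) versus untreated plants.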

common lambsquarters [7] = assay: Foliar spread test for upland field; assay type: in vivo, Chenopodium album; set-up: key: 0 = normal development, 5 = all killed (6 ranks vs. untreated); settings: foliar spray, 500 ppm, 3 weeks, glass house 25° C.
Summary of the method: as §1

common lambsquarters [8] = assay: Soil treatment test for upland field; assay type: in vivo, Chenopodium album; set-up: key: 0 = normal development, 5 = all killed; settings: 500 g/ha, 3 weeks, glass house 25° C.
Summary of the method: as §2

wheat [9] = assay: Soil treatment test for upland field; assay type: in vivo; set-up: key: 0 = normal development, 5 = all killed; settings: 500 g/ha, 3 weeks, glass house 25° C.
Summary of the method: as §2

corn [10] = assay: Soil treatment test for upland field; assay type: in vivo; set-up: key: 0 = normal development, 5 = all killed; settings: 500 g/ha, 3 weeks, glass house 25° C.
Summary of the method: as §2

sugar beat [11] = assay: Soil treatment test for upland field; assay type: in vivo; set-up: key: 0 = normal development, 5 = all killed; settings: 500 g/ha, 3 weeks, glass house 25° C.
Summary of the method: as §2

solgum [12] = assay: Soil treatment test for upland field; assay type: in vivo; set-up: key: 0 = normal development, 5 = all killed; settings: 500 g/ha, 3 weeks, glass house 25° C.
Summary of the method: as §2

morning glory [13] = assay: Soil treatment test for upland field; assay type: in vivo, Ipomoea spps.; set-up: key: 0 = normal development, 5 = all killed; settings: 500 g/ha, 3 weeks, glass house 25° C.
Summary of the method: as §2

livid amaranth [14] = assay: Foliar spread test for upland field; assay type: in vivo, Amaranthus lividus; set-up: key: 0 = normal development, 5 = all killed (6 ranks vs. untreated); settings: foliar spray, 500 ppm, 3 weeks, glass house 25° C.
Summary of the method: as §1

Xanthium pensylvanicum = assay: Foliar spread test for upland field; assay type: in vivo; set-up: key: 0 = normal development, 5 = all killed; settings: foliar spray, 500 ppm, 3 weeks, glass house 25° C.
Summary of the method: as §1

Cassia obtusifolia = assay: Foliar spread test for upland field; assay type: in vivo; set-up: key: 0 = normal development, 5 = all killed; settings: foliar spray, 500 ppm, 3 weeks, glass house 25° C.
Summary of the method: as §1

velvetleaf = assay: Foliar spread test for upland field; assay type: in vivo, Abutilon theophrasti; set-up: key: 0 = normal development, 5 = all killed (6 ranks vs. untreated); settings: foliar spray, 500 ppm, 3 weeks, glass house 25° C.
Summary of the method: as §1

Fc1ccc2nc(-c3cccc(Oc4ccc(F)c(C(F)(F)F)c4)n3)oc2c1 [I-a-7]
Effects Large crabgrass (Large crabgrass): 3
Effects Annual bluegrass (annual bluegrass): 5
Effects Wheat (wheat [1]): 2
Effects Corn (corn [2]): 1
Effects Sugar beat (sugar beat [3]): 5
Effects Soybean (soybean): 3
Effects Solgum (solgum [4]): 2
Effects Sotton (cotton): 3
Effects Livid amaranth (livid amaranth [5]): 5
Effects Blackgrass (blackgrass): 1
Effects Barnyardgrass (barnyard grass): 4
Effects Morning glory (morning glory [6]): 3
Effects Green foxtail (green foxtail): 5
Effects Arrowhead (arrowhead): 0
Effects Common lambsquarters (common lambsquarters [7]): 4
Effects Common lambsquarters (common lambsquarters [8]): 5
Effects Wheat (wheat [9]): 0
Effects Corn (corn [10]): 0
Effects Sugar beat (sugar beat [11]): 5
Effects Solgum (solgum [12]): 0
Effects Morning glory (morning glory [13]): 1
Effects Livid amaranth (livid amaranth [14]): 5
Effects Common Cocklebur (Xanthium pensylvanicum): 4
Effects Sicklepod (Cassia obtusifolia): 3
Effects Velvetleaf (velvetleaf): 3

FC(F)(F)c1cccc(Oc2cccc(-c3nc4cc(Cl)ccc4o3)n2)c1 [I-a-3, 6-(5-chlorobenzoxazol-2-yl)-2-(3-trifluoromethylphenoxy)pyridine]
Effects Large crabgrass (Large crabgrass): 2
Effects Annual bluegrass (annual bluegrass): 5
Effects Wheat (wheat [1]): 1
Effects Corn (corn [2]): 1
Effects Sugar beat (sugar beat [3]): 4
Effects Soybean (soybean): 3
Effects Solgum (solgum [4]): 1
Effects Sotton (cotton): 4
Effects Livid amaranth (livid amaranth [5]): 5
Effects Blackgrass (blackgrass): 1
Effects Barnyardgrass (barnyard grass): 4
Effects Morning glory (morning glory [6]): 5
Effects Green foxtail (green foxtail): 5
Effects Arrowhead (arrowhead): 0
Effects Common lambsquarters (common lambsquarters [7]): 5
Effects Common lambsquarters (common lambsquarters [8]): 5
Effects Wheat (wheat [9]): 1
Effects Corn (corn [10]): 1
Effects Sugar beat (sugar beat [11]): 5
Effects Solgum (solgum [12]): 1
Effects Morning glory (morning glory [13]): 3
Effects Livid amaranth (livid amaranth [14]): 5
Effects Common Cocklebur (Xanthium pensylvanicum): 4
Effects Sicklepod (Cassia obtusifolia): 4
Effects Velvetleaf (velvetleaf): 4

Fc1ccc2nc(-c3cccc(Oc4cccc(C(F)(F)F)c4)n3)oc2c1 [I-a-6, 6-(6-fluorobenzoxazol-2-yl)-2-(3-trifluoromethylphenoxy)pyridine]
Effects Large crabgrass (Large crabgrass): 5
Effects Annual bluegrass (annual bluegrass): 5
Effects Wheat (wheat [1]): 3
Effects Corn (corn [2]): 3
Effects Sugar beat (sugar beat [3]): 5
Effects Soybean (soybean): 5
Effects Solgum (solgum [4]): 3
Effects Sotton (cotton): 3
Effects Livid amaranth (livid amaranth [5]): 5
Effects Blackgrass (blackgrass): 5
Effects Barnyardgrass (barnyard grass): 5
Effects Morning glory (morning glory [6]): 5
Effects Green foxtail (green foxtail): 5
Effects Arrowhead (arrowhead): 0
Effects Common lambsquarters (common lambsquarters [7]): 5
Effects Common lambsquarters (common lambsquarters [8]): 5
Effects Wheat (wheat [9]): 1
Effects Corn (corn [10]): 0
Effects Sugar beat (sugar beat [11]): 5
Effects Solgum (solgum [12]): 0
Effects Morning glory (morning glory [13]): 5
Effects Livid amaranth (livid amaranth [14]): 5
Effects Common Cocklebur (Xanthium pensylvanicum): 5
Effects Sicklepod (Cassia obtusifolia): 5
Effects Velvetleaf (velvetleaf): 5
